Laboratory results published in patent US20110046223A1, “TREATMENT OF NEUROFIBROMATOSIS” (RAMOT AT TEL-AVIV UNIVERSITY LTD., priority 2006, published 2011).

What was measured:
NF-1+/+ SV40 MEFs = assay: colchicine-induced death, cell viability by MTT assay; assay type: cell-based, mouse; details: NF-1+/+ cells; 75 μM FTS or vehicle 24 h, then colchicine 4.5 h
Procedure: (§1) Human NF-1 ST88-14 MPNST, non-NF-1 STS26T MPNST, and the different primary and SV40-immortalized NF-1 genotypes (NF-1^−/−, NF-1^+/−, and NF-1^+/+) of mouse embryonic fibroblasts (MEFs) were grown in high-glucose Dulbecco's modified Eagle's medium (DMEM) supplemented with 10% heat-inactivated fetal calf serum (both from Biological Industries, Beit Ha Emek, Israel) with 0.0004% β-mercaptoethanol added to the MEF growth medium only.
(§2) The three primary NF-1 MEF genotypes were immortalized by transfection with SV40 whole genome DNA (a gift from Dr. Atan Gross, The Weizmann Institute of Science) using the lipofectamine transfection reagent (InvitroGen Life Technologies, Paisley, UK). One day before transfection, primary MEFs were seeded at a density of 2×10^5 cells per well in 6-well plates. To each dish we added 1 ml of DNA-lipofectamine mixture, 0.1 μg SV40 whole genome DNA, and 10 μg of lipofectamine in 1 ml of OptiMEM (InvitroGen), according to the manufacturer's instructions. The cells were split 24 h after transfection and seeded in 10-cm^2 dishes at a density of 1×10^3 to 1×10^4 cells per dish. Immortalized clones from each NF-1 genotype were collected 14 days after transfection.
(§3) Cell viability was determined by the MTT assay.

[1] = test system: NF-1−/− and NF-1+/− SV40 MEFs; assay: as above; assay type: cell-based, mouse; details: NF-1−/− and NF-1+/− cells; 75 μM FTS or vehicle 24 h, then colchicine 4.5 h
Procedure: as §1, §2, §3

COc1cc2c(c(OC)c1OC)-c1ccc(OC)c(=O)cc1[C@@H](NC(C)=O)CC2 [colchicine, Acetamide, N-((7S)-5,6,7,9-tetrahydro-1,2,3,10-tetramethoxy-9-oxobenzo(a)heptalen-7-yl)-]
cell survival / colchicine-induced cell death (NF-1+/+ SV40 MEFs): induced death
cell survival / colchicine-induced cell death [1]: only a small effect on cell survival
